One data set relates to human B cells. Kind of data set: Human B cell proliferation by 3H-thymidine uptake. Type of data set: cell-based. Conditions: purified human B cells, day two; E. coli DNA 50 μg/ml, ODN 2 μM. An excerpt: Bacterial DNA has been described as a mitogen for both murine and human B cells. Although LPS is also mitogenic for murine B cells, it is generally accepted that LPS is not a mitogen for human B cells. […] B cell proliferation was monitored at day two by ^3H-thymidine uptake.

Another data set addresses T1, human TLR9 (Homo sapiens, UniProt Q9NR96, H530R/Q688R).
T1 construct: expressed in transfected cells
T1 sequence (Q9NR96 26-1032 H530R/Q688R): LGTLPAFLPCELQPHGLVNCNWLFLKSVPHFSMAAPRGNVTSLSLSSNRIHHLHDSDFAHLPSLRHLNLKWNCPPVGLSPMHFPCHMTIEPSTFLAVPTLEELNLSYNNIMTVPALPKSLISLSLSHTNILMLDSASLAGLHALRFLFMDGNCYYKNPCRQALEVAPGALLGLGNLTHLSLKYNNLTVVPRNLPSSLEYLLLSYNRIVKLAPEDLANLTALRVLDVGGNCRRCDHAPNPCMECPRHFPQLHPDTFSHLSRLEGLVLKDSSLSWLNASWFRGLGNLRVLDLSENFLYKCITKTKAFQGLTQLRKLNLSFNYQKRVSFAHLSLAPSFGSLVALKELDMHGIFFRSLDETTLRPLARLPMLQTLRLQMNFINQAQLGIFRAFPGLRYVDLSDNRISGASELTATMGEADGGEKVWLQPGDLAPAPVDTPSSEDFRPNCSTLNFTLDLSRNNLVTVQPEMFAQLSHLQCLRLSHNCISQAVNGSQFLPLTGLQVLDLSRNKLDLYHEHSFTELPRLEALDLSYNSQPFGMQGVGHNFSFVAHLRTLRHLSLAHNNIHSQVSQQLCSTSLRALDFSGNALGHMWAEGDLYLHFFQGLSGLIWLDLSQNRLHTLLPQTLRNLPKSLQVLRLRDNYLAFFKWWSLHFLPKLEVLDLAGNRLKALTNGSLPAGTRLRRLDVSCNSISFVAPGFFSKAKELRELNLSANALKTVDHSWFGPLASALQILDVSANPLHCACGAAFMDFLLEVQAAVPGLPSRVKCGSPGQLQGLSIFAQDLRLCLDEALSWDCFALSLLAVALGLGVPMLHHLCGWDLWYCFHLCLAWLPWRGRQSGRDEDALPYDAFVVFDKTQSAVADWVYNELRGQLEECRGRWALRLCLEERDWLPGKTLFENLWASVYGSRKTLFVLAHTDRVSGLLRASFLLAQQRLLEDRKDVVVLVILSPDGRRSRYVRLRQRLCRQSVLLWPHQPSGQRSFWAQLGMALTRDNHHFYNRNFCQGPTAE
The data set can be described thus: IL-8 production by ELISA in 293 cells transfected with human TLR9. Type of data set: cell-based. The note with it: 293 cells transiently transfected with hTLR9 alone; 48 h; ODN 2 μM, LPS 100 ng/ml. The text has this: Since NF-κB activation is central to the IL-1/TLR signal transduction pathway (Medzhitov R et al., Mol Cell 2:253-258 (1998); Muzio M et al., J Exp Med 187:2097-2101 (1998)), cells were transfected with hTLR9 or co-transfected with hTLR9 and a NF-κB-driven luciferase reporter construct. Human fibroblast 293 cells were transiently transfected with (FIG. 1A) hTLR9 and a six-times NF-κB-luciferase reporter plasmid (NF-κB-luc, kindly provided by Patrick Baeuerle, Munich, Germany) or (FIG. 1B) with hTLR9 alone. After stimulus with CpG-ODN (2006, 2 μM, […], SEQ ID NO:112), GpC-ODN (2006-GC, 2 μM, […], SEQ ID NO:118), LPS (100 ng/ml) or media, NF-κB activation by luciferase readout (8 h, FIG. 1A) or IL-8 production by ELISA (48 h, FIG. 1B) were monitored. Results are representative of three independent experiments. […]
Because stable TLR9 transfectants mirrored primary cell responsiveness to CpG-DNA (FIGS. 4 and 5), it was hypothesized that stable transfectants could potentially discern species-specific CpG-motifs through TLR9 receptors. […] Depicted are both NF-κB-driven luciferase and IL-8 production as readout. […] After lysis of the cells luciferase can be detected photometrically based on an enzymatic reaction by luciferase which creates photons. IL-8 production was monitored using enzyme-linked immunosorbent assay (ELISA). […]

Data set [1] concerns plasmacytoid DC (CD123+DC). Kind of data set: Cytokine production by plasmacytoid dendritic cells (ELISA). Format: cell-based, human. The note with it: purified CD123+DC; ODN 2 μM, LPS 100 ng/ml. The method, then: (§1) Human dendritic cells (DC) have been claimed to be responsive to CpG-DNA. […] The converse was true for stimulation of monocyte-derived dendritic cells (MDDC) (FIG. 8 and unpublished data). […] IL-8 and TNF concentration was determined by enzyme-linked immunosorbent assay (ELISA). The CD123+DC response was DNA- and CpG-motif restricted. […] Due to this segregated response we analyzed TLR expression.
(An ELISA detects its analyte on a solid surface through an enzyme-linked reagent.)

Data set [2] deals with monocyte-derived dendritic cells (MDDC). The data set can be described thus: Cytokine production by monocyte-derived dendritic cells (ELISA). The note with it: purified MDDC; ODN 2 μM, LPS 100 ng/ml. Format: cell-based, human. The method, then:
as §1

On to TCGTCGTTTTGTCGTTTTGTCGTT [ODN 2006], for which, in the data set on human B cells, the “B cell proliferation (3H-thymidine uptake)” value is listed as “proliferate”. Besides, the “IL-8 production by ELISA” value on human TLR9 was “responded”. The “cytokine production by CD123+DC” value in data set [1] is “produced IFN-α, TNF, GM-CSF, and IL-8”. Moreover, the “response of MDDC (IL-8, TNF)” value in data set [2] is recorded as “not”.
Take “TGCTGCTTTTGTGCTTTTGTGCTT (listed as DNA, chemistry not fully specified) [ODN 2006-GC]”: the “B cell proliferation (3H-thymidine uptake)” value with human B cells is listed as “not”.
As for lipopolysaccharide [LPS], the “IL-8 production by ELISA” value on human TLR9 is “not”. Besides, the “cytokine production by CD123+DC” value in data set [1] is listed as “not”.

These data come from patent US7820379B2, “Process for high throughput screening of CpG-based immuno-agonist/antagonist” (Coley Pharmaceutical GmbH, priority 2000, dated 2010).
